Data set [1] concerns MDA-MB-231 cells. The data set is described as follows: MTT assay, MDA-MB-231 cells. Format: cell-based, human. The note with it: 72 h, read-out: Inhibitory Effect (IC50/μM) MDA-MB-231. How it is done: (§1) Liver cancer HepG2 cells, lung cancer A549 cells, breast cancer MCF-7 and MDA-MB-231 cells, human nasopharyngeal carcinoma CNE-1 cells, and human immortalized keratinocyte HaCaT cells were seeded in 96-well plates (5 × 10^3 cells per well) and cultured at 37 °C and 5% CO2 for 24 h. Cells were treated with different concentrations of the complexes (0, 1.5625, 3.125, 6.25, 12.5, 25, 50, and 100 µM) for 72 h. After adding 20 µL MTT (5 mg/mL) solution to each well, the cells were incubated for 4 h, and then 150 µL DMSO was added to each well. The optical density of each well was detected by a microplate reader at a wavelength of 570 nm. The cell survival rate (%) = A(experimental group)/A(control group) × 100%, and the IC50 value was analyzed and calculated based on the survival rate.
For orientation: Formazan colour is commonly taken as a measure of viable cells.

For another data set, the system named is MCF-7 cells. Nature of the data set: MTT assay, MCF-7 cells. The note with it: 72 h, read-out: Inhibitory Effect (IC50/μM) MCF-7. Format: cell-based, human. How it is done:
as §1

The subject of a further data set is HepG2 cells. Nature of the data set: MTT assay, HepG2 cells. Conditions: 72 h, read-out: Inhibitory Effect (IC50/μM) HepG2. Format: cell-based, human. As for the experimental part:
as §1

Another data set relates to A549 cells. The data set is described as follows: MTT assay, A549 cells. Conditions: 72 h, read-out: Inhibitory Effect (IC50/μM) A549. It counts as cell-based, human. How it is done: as §1
The next data set concerns HaCaT cells. Nature of the data set: MTT assay, normal HaCaT keratinocytes. Conditions: 72 h, normal human keratinocytes, read-out: Inhibitory Effect (IC50/μM) HaCaT. Format: cell-based. How it is done:
as §1

Another data set relates to CNE-1 cells. The data set is described as follows: MTT assay, CNE-1 cells. The note with it: 72 h, read-out: Inhibitory Effect (IC50/μM) CNE-1. Format: cell-based, human. How it is done: as §1
In data set [2] the test system is MDA-MB-231 cells. The data set is described as follows: EdU proliferation assay. Format: cell-based, human. Conditions: control 50.2%. As for the experimental part: The inhibitory effect of the chiral DPPZ-based Ru(II) complexes (Λ/Δ−1−3) was assessed against different human tumor cancer cells, such as breast cancer MCF-7, MDA-MB-231, lung cancer A549, liver carcinoma HepG2, nasopharyngeal carcinoma CNE-1, and human normal keratinocyte HaCaT cells, by MTT assay. […] Moreover, the inhibition of MDA-MB-231 cell proliferation by Δ−3 was detected by using an EdU (5-ethynyl-2′-deoxyuridine) staining kit, and EdU was incorporated into newly synthesized DNA in the sample cells. The red fluorescent azide is small enough to diffuse freely through native tissues and DNA, and it covalently cross-links to the EdU in a “click” chemistry reaction.

The test system of data set [3] is MDA-MB-231 cells. Nature of the data set: ICP detection of Ru content in cells. The note with it: 24 h, control 0.4. It counts as cell-based, human. How it is done: MDA-MB-231 cells were seeded in 10 cm cell culture dishes. After cell adherence, the cells were treated with the drug (0, 2.5, 5, and 10 μM) for 24 h. After 24 h, the cells were washed with PBS three times and collected by trypsin. The number of collected cells was counted by a cell counter. Then, the cells were digested in 1 mL HNO3 solution by microwave digestion at 120 °C for 3 min, and 1 mL of this solution was transferred to a 5 mL volumetric flask, diluted with distilled water to volume, and mixed. The Ru content of these solutions was analyzed by an ICP optical emission spectrometer (NCS, Plasma 2000). All measurements were repeated three times.

Data set [4] deals with c-myc G-quadruplex DNA. Nature of the data set: FRET melting assay. Conditions: free DNA Tm 59.5 °C. It counts as binding, human. How it is done: Carboxy fluorescein (FAM) and 6-carboxytetramethyl rhodamine (TAMRA) double fluorescent-labeled c-myc G4 DNA (5′−FAM-TGAGGGTGGGAGGGGTAA-TAMRA−3′) were heated to 95 °C in Tris-HCl-KCl buffer (containing 10 mM Tris-HCl, 100 mM KCl, pH 7.4) for 5 min and slowly cooled to room temperature. To ds26, double-stranded DNA ([…]) is a competitive binder, research Λ/Δ−3 with c-myc G4 selectivity binding ability of DNA. A Bio-Radiq5 real-time PCR detection system was used to measure the fluorescence melting curve. Approximately 1 μM (5 μL) FPU22T was mixed with a series of 5 μL compound solutions of different concentrations, and 15 μLTris-HCl-KCl buffer was added to the PCR 8 tube to obtain a total volume of 25 μL. A real-time fluorescence quantitative PCR instrument was used, and incubation was performed at 30 °C for 30 min. The program temperature range was set to 30–95 °C at a temperature interval of 1 °C, and recording was performed after balancing for 30 s to detect the fluorescence value of FAM. The conditions of the reaction system were similar to those of the FRET melting point test except that different concentrations of ds26 were added.

The test system of data set [5] is c-myc G-quadruplex DNA. Nature of the data set: PCR-stop assay. It counts as biochemical, human. Conditions: Taq polymerase. How it is done:
In this study, c-myc G4 DNA and its reverse complementary sequence c-myc rev were heated to 95 °C for 5 min, allowed to cool to room temperature, and incubated at 4 °C overnight. The system was supplemented with dNTPs and Taq polymerase for PCR amplification; heated at 95 °C for 3 min, 94 °C for 30 s, and 58 °C for 30 s, with an extension at 72 °C for 30 s (30 cycles); and analyzed by 15% nondenatured polyacrylamide gel electrophoresis and silver staining.

The values below come from publication PMC9820592, “Novel Chiral Ru(II) Complexes as Potential c-myc G-quadruplex DNA Stabilizers Inducing DNA Damage to Suppress Triple-Negative Breast Cancer Progression” (International Journal of Molecular Sciences, 2022).

Broadly, the ΔTm is the shift of the melting midpoint relative to a reference.

For `N.N.[Cl][Pt][Cl]` [Cis-platin, cisplatin, reference compound], the IC50 in the data set with MDA-MB-231 cells [1] amounted to 25.9 ± 1.9 µM; in the data set on MCF-7 cells it was 14.27 ± 0.07 µM; in the data set on HepG2 cells, 12.7 ± 0.7 µM; in the data set on A549 cells it was 9.9 ± 0.25 µM; with HaCaT cells it was 7.1 ± 0.5 µM.

For Δ-[Ru(bpy)2(BrDPPZ)](ClO4)2 [Δ−2], the IC50 in the data set with MDA-MB-231 cells [1] was 94.5 ± 9.1 µM; in the data set with MCF-7 cells, greater than 100 µM; in the data set with HepG2 cells, greater than 100 µM; in the data set on A549 cells, 89.9 ± 11.3 µM; with CNE-1 cells, greater than 100 µM; in the data set on HaCaT cells it was greater than 100 µM.

Regarding Δ-[Ru(bpy)2(DPPZ)](ClO4)2 [Δ−1], the IC50 in the data set with MDA-MB-231 cells [1], in the data set on MCF-7 cells, in the data set with HepG2 cells, with A549 cells, in the data set on CNE-1 cells and in the data set on HaCaT cells was greater than 100 µM each time.

Take Λ-[Ru(bpy)2(3-NBEDPPZ)](ClO4)2 [Λ−3]: the IC50 is 53.5 ± 1.7 µM in the data set on MDA-MB-231 cells [1]; 74.8 ± 2.4 µM in the data set on HepG2 cells; 55.4 ± 2.4 µM in the data set with A549 cells; greater than 100 µM in the data set on CNE-1 cells; greater than 100 µM in the data set with HaCaT cells. In addition, the “proliferation rate (EdU)” value in the data set with MDA-MB-231 cells [2] (10 μM) is 34.0%; in the data set on MDA-MB-231 cells [2] (20 μM), 27.5%; in the data set with MDA-MB-231 cells [2] (40 μM) it was 11.3%. The “Ru content in cells” value in the data set on MDA-MB-231 cells [3] (2.5 μM) was 0.56 ng/mL per 1 × 10^4 cells; with MDA-MB-231 cells [3] (5 μM), 1.44 ng/mL per 1 × 10^4 cells; in the data set on MDA-MB-231 cells [3] (10 μM) it was 2.47 ng/mL per 1 × 10^4 cells. Also, the values for the thermal shift (ΔTm) result in the data set with c-myc G-quadruplex DNA [4] (complex 0.5 μM) and with c-myc G-quadruplex DNA [4] (complex 1.0 μM) were “approximately 2.2 °C” and roughly 4.9 °C, respectively. Moreover, in the data set with c-myc G-quadruplex DNA [5], the “minimum concentration necessary for effective inhibition (PCR products)” value is 5 µM.

On to Λ-[Ru(bpy)2(BrDPPZ)](ClO4)2 [Λ−2], for which the IC50 with MDA-MB-231 cells [1] is 92.1 ± 12.1 µM; with MCF-7 cells, greater than 100 µM; in the data set with HepG2 cells, greater than 100 µM; in the data set on A549 cells, 91.5 ± 10.8 µM; in the data set on CNE-1 cells it was greater than 100 µM; in the data set on HaCaT cells, greater than 100 µM.

For Λ-[Ru(bpy)2(DPPZ)](ClO4)2 [Λ−1], the IC50 in the data set with MDA-MB-231 cells [1] was 60.8 ± 7.41 µM; in the data set with MCF-7 cells, greater than 100 µM; with HepG2 cells, greater than 100 µM; with A549 cells, greater than 100 µM; in the data set with CNE-1 cells it was greater than 100 µM; in the data set with HaCaT cells, greater than 100 µM.
